Key:
Format in all cases: tissue-based
[1] = target: T1, Synaptic vesicular amine transporter (Rattus norvegicus, UniProt Q01827); experiment: Displacement of [3H]DTBZ from VMAT2 dihydrotetrabenazine binding site in rat brain synaptic vesicle by scintillation counting
[2] = target: T1, Synaptic vesicular amine transporter; experiment: Inhibition of [3H]dopamine uptake at VMAT2 in rat brain synaptic vesicle by liquid scintillation spectroscopy
[3] = target: Synaptic vesicular amine transporter (Rattus norvegicus) (UniProt Q01827); experiment: Ratio of Ki for displacement of [3H]DTBZ from VMAT2 dihydrotetrabenazine binding site in rat brain synaptic vesicle to Ki for inhibition of [3H]dopamine uptake at VMAT2 in rat brain synaptic vesicle
Chain of Synaptic vesicular amine transporter (Rattus norvegicus) (Q01827 whole entry): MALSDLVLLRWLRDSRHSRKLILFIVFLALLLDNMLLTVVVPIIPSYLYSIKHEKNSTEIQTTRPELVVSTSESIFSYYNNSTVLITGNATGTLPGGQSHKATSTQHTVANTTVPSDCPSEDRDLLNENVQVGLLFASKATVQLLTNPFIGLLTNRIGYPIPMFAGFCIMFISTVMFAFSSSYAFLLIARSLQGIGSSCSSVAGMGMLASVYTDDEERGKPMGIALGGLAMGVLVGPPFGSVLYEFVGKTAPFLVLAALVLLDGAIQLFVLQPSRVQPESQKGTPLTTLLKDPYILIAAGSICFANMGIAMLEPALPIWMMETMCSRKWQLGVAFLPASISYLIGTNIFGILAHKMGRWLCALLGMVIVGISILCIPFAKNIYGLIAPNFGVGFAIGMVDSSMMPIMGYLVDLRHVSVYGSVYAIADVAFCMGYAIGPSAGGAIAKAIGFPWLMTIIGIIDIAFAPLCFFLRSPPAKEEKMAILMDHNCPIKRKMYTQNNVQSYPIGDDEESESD

T1 sequence (Q01827 whole entry): as above

Structure (SMILES)	Ki [1] [nM]	Ki [2] [nM]	Ratio Ki [3]
CN1[C@H](CCCc2ccccc2)CC[C@@H]1CCCc1ccccc1	2780	120	23.2
CN1[C@H](CCc2ccccc2)CC[C@@H]1CCc1ccccc1	8800	270	32.6
OC[C@@H](c1ccccc1)N1[C@H](CCc2ccccc2)CC[C@@H]1CCc1ccccc1	2750	140	19.6
CN1[C@@H](CCc2ccccc2)CC[C@@H]1CCc1ccccc1	14500	170	85
c1ccc(CC[C@H]2CCC[C@@H](CCc3ccccc3)N2)cc1		23	100
c1ccc(C[C@H]2CC[C@@H](Cc3ccccc3)N2)cc1	1640	9.3	176
CN1[C@@H](Cc2ccccc2)CC[C@H]1Cc1ccccc1	2460	19	130
CN1[C@H](CCc2ccccc2)CC[C@H]1CCc1ccccc1	3970	120	33.1
OC[C@H](c1ccccc1)N1[C@H](CCc2ccccc2)CC[C@@H]1CCc1ccccc1	4340	1290	3.36
OC[C@@H](c1ccccc1)N1[C@@H](CCc2ccccc2)CC[C@@H]1CCc1ccccc1	5610	270	20.7
c1ccc(CCC[C@@H]2CC[C@H](CCCc3ccccc3)N2)cc1	270	14	19.3
c1ccc(CC[C@@H]2CC[C@@H](CCc3ccccc3)N2)cc1	3400	54	63
OC[C@H](c1ccccc1)N1[C@H](CCc2ccccc2)CC[C@H]1CCc1ccccc1	5050	1940	2.6
c1ccc(CC[C@H]2CC[C@H](CCc3ccccc3)N2)cc1	1330	35	38
c1ccc(CC[C@@H]2CC[C@H](CCc3ccccc3)N2)cc1	3060	29	106

Source: ChEMBL document CHEMBL1155179 (J Med Chem, 2009)
